Assay [1] deals with T1, ANX A1 (Homo sapiens, UniProt P04083).
T1 construct: The ANX A1 cDNA fragment, full-length (1–346 a.a.) or deletion mutants; GST (pGEX-6P-1) (N, cleaved yes); made in house; host or cells: Escherichia coli BL21 (DE3)
T1 sequence (P04083 1-346): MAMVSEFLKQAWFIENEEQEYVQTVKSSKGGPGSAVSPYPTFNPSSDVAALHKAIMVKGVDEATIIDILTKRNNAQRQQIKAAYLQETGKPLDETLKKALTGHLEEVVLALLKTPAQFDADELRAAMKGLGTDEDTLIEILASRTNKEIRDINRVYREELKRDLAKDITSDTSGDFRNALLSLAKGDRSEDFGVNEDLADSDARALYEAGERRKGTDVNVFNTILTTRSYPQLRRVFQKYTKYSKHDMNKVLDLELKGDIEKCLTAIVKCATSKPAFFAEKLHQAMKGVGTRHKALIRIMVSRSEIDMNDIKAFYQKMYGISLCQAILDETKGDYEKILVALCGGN
Put plainly: Isothermal titration calorimetry (ITC) binding to ANX A1. On the procedure:
ITC experiments were performed at 298 K with ITC buffer (20 mmol L^−1 Tris-HCl (pH 7.5), 100 mmol L^−1 NaCl, 2% dimethyl sulfoxide) using a MicroCal iTC200 (Malvern). SC1 or SC2 were dissolved at 2 mmol L^−1 with ITC buffer and titrated into 1 μmol L^−1 of ANX A1 protein with or without 2 mmol L^−1 EDTA (for apo-ANX A1) or 3 mmol L^−1 CaCl2 (for Ca^2+-bound ANX A1). The titration was performed by injecting 2 µL of the syringe solution at intervals of 120 s. The binding isotherms were analysed using SEDPHAT.[54]

Assay [2] deals with TNFα production in U937 cells. Put plainly: TNFα production in PMA/LPS-stimulated U937 cells (ELISA). It is filed as cell-based, human. On the procedure:
(§1) For enzyme-linked immunosorbent assay (ELISA) assays, U937 cells (control or ANX A1 KD) were seeded on 96-well plates and stimulated by adding 100 nmol L^−1 phorbol myristate acetate (Sigma-Aldrich, MO, USA) for 24 h. The cells were treated for 12 h with LPS (100 ng mL^−1) with or without adding the indicated sesamin, SC1, or SC2 and/or PD98059 concentrations. The cell culture supernatants were collected, and TNFα or ANX A1 production was measured using ELISA (TNFα: R&D Systems; ANX A1: USCN, Wuhan, China) according to the manufacturer’s instructions.

Assay [3] concerns TNFα production in ANX A1 KD U937 cells. Nature of the assay: TNFα production in ANX A1 knockdown U937 cells (ELISA). Conditions: U937 cells with knocked down ANX A1. The assay is classed as cell-based, human. On the procedure: U937 cells were maintained in RPMI-1640 medium (Gibco/Thermo Fisher Scientific, MA, USA) supplemented with 10% fetal bovine serum. To generate a stable ANX A1-KD cell line, lentivirus vectors encoding a control or shRNA sequence targeting ANX A1 (Supplementary Methods) were transfected into 293FT cells. The lentivirus was prepared according to the manufacturer’s instructions (Invitrogen, MA, USA). U937 cells were infected with the lentivirus, and a stable cell line was selected by maintaining the cells in medium containing 10 μg mL^−1 blasticidin (Invitrogen) for 1 week.
as §1

As for `Oc1ccc(C2OCC3C(c4ccc5c(c4)OCO5)OCC23)cc1O` (stereo not drawn) [SC1, (7α,7′α,8α,8′α)-3′,4′-methylenedioxy-7,9′:7′,9-diepoxylignane-3,4-diol], in assay [1] (3 mmol L^-1 Ca^2+, ITC), the dH was -452.11 kcal/mol and the dS is given as -1491.41 cal/mol K. Besides, the Kd in assay [1] (Ca^2+ form of ANX A1, 3 mmol L^-1 CaCl2, ITC, 298 K, read-out: binding affinity (Kd)) is 2770 nM. Also, in assay [1] (Ca^2+ free (EDTA), ITC), the “binding to apo-ANX A1” value is “No binding”. Also, the IC50 in assay [2] (Homo sapiens, U-937, PMA-differentiated U937 cells, LPS, 12 h, ELISA) came out at 2200 nM. Also, the “inhibition of TNFα production induced by LPS and PMA” value in assay [2] (U937 cells, dose-dependent) is “significantly inhibited”. Also, in assay [3], the “inhibitory effects on TNFα production in ANX A1 knockdown cells” value is “disappeared”.
